Data taken from PubChem BioAssay AID1918956 (Molecular Pharmacology Branch, DTP, NCI, 2023).
pIC50: −log10 of the molar value. Several values for one entry are separate records, joined by “and”; a condition that tells them apart may be missing. Equal values may be shown once.

System: OVCAR-5 complex spheroids, viability
Assay: Anticancer human tumor OVCAR-5 cell line growth inhibition;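 further: spheroids exposed to agents for seven days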;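 on viability, T/C: 100% = DMSO vehicle control wells viability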
Conditions: for viability, T/C: stronger effect = lower value; for pIC50: curve of compound
Excerpt: Multicellular complex tumor spheroid response to LSD1 Inhibitor Iadademstat in combination with a variety of drugs and investigational agents in selected tumor cell lines
The current study was undertaken to assess response to LSD1 inhibitors in combination with standard-of-care drugs and investigational agents in solid tumor complex spheroid models as well as in the K-562 leukemia. Complex spheroids include a stromal component modeled by human endothelial cells (HUVEC) and fibroblasts modeled by human mesenchymal stem cells (MSCs). The concentration ranges selected for each drug and investigational agent were based upon clinically achievable concentrations if the clinical Cmax of the agent was known.
Compounds. The drugs and investigational agents used in this study are listed on Table 1. All of the agents used, including staurosporine (NSC755774) and gemcitabine (NSC613327), were obtained from the Developmental Therapeutics Program, NCI. FDA-approved anticancer drugs are available from the NCI at http://dtp.nci.nih.gov/branches/dscb/oncology_drugset_explanation.html. Drugs and investigational agents were >95% pure by proton nuclear magnetic resonance (NMR) and liquid chromatography/mass spectrometry (LC/MS). Stock solutions were prepared at 400x in DMSO, stored at -70 degrees C, and diluted in fresh medium prior to their use. The final concentration of DMSO in cell culture wells never exceeded 0.25% (v/v). The FDA-approved anticancer drug set is available from the Developmental Therapeutics Program at https://dtp.cancer.gov/organization/dscb/obtaining/available_plates.htm. All drugs and investigational agents were tested over a range starting from a high concentration at or near the clinical Cmax and decreasing in half-log increments. If the clinical Cmax for an agent had not been determined, the highest concentration tested was 10 microM.
Cell Lines. The patient-derived cancer cell (PDC) lines: 292921-168-R-J2-PDC, K24384-001-R-PDC, and 521955-158-R2-J5-PDC pancreatic carcinomas, 556581-035-R-J1 ovarian carcinoma, 324938-238-R-J1-PDC, 855422-203-R-J1-PDC and 883617-216-R-J1-PDC urothelial bladder carcinomas, 743489-274-T-PDC renal cell carcinoma, 138582-R-J1 Merkel cell tumor, K60290-347-R-J1 and K57222-313-R-J1-PDC glioblastomas, 653999-131-R-J2-PDC, LG0703-F948-PDC, and 349418-098-R-PDC non-small cell lung carcinomas, 885512-296-R-J2-PDC, 171881-019-R-J1-PDC breast carcinomas and 186277-243-T-J2-PDC and 233499-124-R-J2-PDC colon carcinomas were obtained from the NCI Patient-Derived Models Repository (PDMR, https://pdmr.cancer.gov). The established cell lines NCI/ADR-RES (RRID:CVCL_14520 and OVCAR-5 (RRID:CVCL_1628) ovarian carcinomas, 786-O (RRID:CVCL_1051) and A498 […] renal cell carcinoma, NCI-H211 (ATCC, cat. CRL-5824; RRID:CVCL_1529), NCI-H196 (ATCC, cat. CRL-5823, RRID:CVCL_1509), SW 1271 (ATCC, cat. CRL-2177, RRID:CVCL_1716) and NCI-H1876 (ATCC, cat. CRL-5902, RRID:CVCL_1503) small cell lung carcinomas, MDA-MB-231 (RRID:CVCL_0062) and MDA-MB-468 (RRID:CVCL_0419)breast carcinomas (10-12). Pooled donor human umbilical vein endothelial cells (HUVEC, Lonza, cat. CC-2519) and human mesenchymal stem cells (hMSC, Lonza, cat. PT-2501) were purchased from Lonza (Walkersville, MD).
Cell Culture. All cells were maintained in an incubator at 37 degrees C and 5% CO2 with 95% humidity. The PDC lines were cultured according to standard operating procedures established by the NCI PDMR (https://pdmr.cancer.gov). Briefly all PDCs were thawed and cultured in Matrigel-coated flasks prepared with a working solution of 1X Ham's F-12 nutrient mix, without supplementation (Invitrogen, Waltham, MA, cat. 11765054), 100 U/mL penicillin-streptomycin (Invitrogen, cat. 15140122), and 2.5% Matrigel (Corning Inc., Corning, NY, cat. 354248) for the first three passages. […]

SMILES	pIC50	viability, T/C (compound 0.000316 µM)	viability, T/C (compound 0.001 µM)	viability, T/C (compound 0.00316 µM)	viability, T/C (compound 0.01 µM)	viability, T/C (compound 0.0316 µM)	viability, T/C (compound 0.1 µM)	viability, T/C (compound 0.316 µM)	viability, T/C (compound 1 µM)	viability, T/C (compound 0.000949 µM)	viability, T/C (compound 0.003 µM)	viability, T/C (compound 0.00949 µM)	viability, T/C (compound 0.03 µM)	viability, T/C (compound 0.0949 µM)	viability, T/C (compound 0.3 µM)	viability, T/C (compound 0.949 µM)	viability, T/C (compound 3 µM)
CC(C)CC(NC(=O)C(Cc1ccccc1)NC(=O)c1cnccn1)B(O)O (centres undefined)	8.08 and 8.16	101% and 95.8%	108% and 93.7%	79.5% and 72.4%	44.7% and 39.4%	19.9% and 15.4%	10% and 7.18%										
CC1COCCN1c1cc(-c2ccnn2C)c2ccnc(-c3ccn[nH]3)c2n1 (centres undefined)	7.26 and 7.45			105% and 92.5%	86.5% and 81.7%	58.9% and 50.4%	39.9% and 36.2%	34.4% and 32.6%	32.2% and 27%								
COc1cc(C2c3cc4c(cc3C(OC3OC5COC(C)OC5C(O)C3O)C3COC(=O)C23)OCO4)cc(OC)c1O (centres undefined)	6.14 and 6.30											108% and 107%	110% and 94.7%	101% and 84.4%	69.6% and 60.9%	44% and 35.2%	39% and 33.6%
COc1cc(Nc2ncc3c(n2)-c2ccc(Cl)cc2C(c2c(F)cccc2OC)=NC3)ccc1C(=O)O	< 6.00 and 6.60			94.1% and 95.2%	88.5% and 86.9%	74.8% and 74.2%	59.8% and 52.2%	57% and 49%	53.1% and 49.2%								

Further lines, with some results ahead:

pIC50	SMILES	viability, T/C (compound 0.000316 µM)	viability, T/C (compound 0.001 µM)	viability, T/C (compound 0.00316 µM)	viability, T/C (compound 0.01 µM)	viability, T/C (compound 0.0316 µM)	viability, T/C (compound 0.1 µM)	viability, T/C (compound 0.316 µM)	viability, T/C (compound 1 µM)	viability, T/C (compound 0.000949 µM)	viability, T/C (compound 0.003 µM)	viability, T/C (compound 0.00949 µM)	viability, T/C (compound 0.03 µM)	viability, T/C (compound 0.0949 µM)	viability, T/C (compound 0.3 µM)	viability, T/C (compound 0.949 µM)	viability, T/C (compound 3 µM)
< 7.00	CC(C)CC(NC(=O)CNC(=O)c1cc(Cl)ccc1Cl)B1OC(=O)CC(CC(=O)O)(C(=O)O)O1 (centres undefined)	94.7% and 103%	95.6% and 99.8%	92.1% and 95.9%	80.1% and 77.8%	85% and 71.1%	70.6% and 57.8%										
8.06 and 8.53	CC[C@@]1(O)C(=O)OCc2c1cc1n(c2=O)Cc2cc3c(CN(C)C)c(O)ccc3nc2-1	102% and 99%	93% and 93.4%	57% and 47.1%	46.6% and 31.7%	47.1% and 34.3%	24% and 18.9%										
> 9.02	CCc1c2c(nc3ccc(O)cc13)-c1cc3c(c(=O)n1C2)COC(=O)[C@]3(O)CC									39.2% and 30.3%	21.2% and 19.1%	8.48% and 7.2%	3.26% and 2.51%	1.15% and 0.63%	0.68% and 0.54%		
